In patent US7919493B2, “Anititumoral ecteinascidin derivatives” (Pharma Mar, S.A., priority 2001, dated 2011):

What was measured:
Format in all cases: cell-based
A549 = test: Cytotoxic assay, sulforhodamine B (SRB), A549; details: Homo sapiens; A549 cells, 48 hours exposure, SRB method
Excerpt: (§1) A colorimetric type of assay, using sulforhodamine B (SRB) reaction has been adapted for a quantitative measurement of cell growth and viability (following the technique described by Skehan P et al. J. Natl. Cancer Inst. 1990, 82, 1107-1112).
(§2) This form of assay employs 96-well cell culture microplates of 9 mm diameter (Faircloth et al. Methods in cell science, 1988, 11(4), 201-205; Mosmann et al, Journal of. Immunological. Methods, 1983, 65(1-2), 55-63). Most of the cell lines are obtained from American Type Culture Collection (ATCC) derived from different human cancer types. Cells are maintained in RPMI 1640 10% FBS, supplemented with 0.1 g/L penicillin and 0.1 g/l streptomycin sulfate and then incubated at 37° C., 5% CO2 and 98% humidity. For the experiments, cells were harvested from subconfluent cultures using trypsin and resuspended in fresh medium before counting and plating.
(§3) Cells were seeded in 96 well microtiter plates at 5×10^3 cells per well in aliquots of 195 μL medium, and allowed to attach to the plate surface for 18 hours in drug free medium. Afterwards, samples are in aliquots of 5 μL in a ranging from 10 to 10-8 μg/mL dissolved in DMSO/ETOH (0.2% in PS buffer). After 48 hours exposure, the antitumor effect are measured by the SRB method: cells are fixed by adding 50 μL of cold 50% (w/v) trichloroacetic acid and incubating for 60 minutes at 4° C. Plates are washed with deionised water and dried. 100 μL of SRB solution (0.4% w/v in 1% acetic acid) is added to each microtiter well and incubated for 10 minutes at room temperature. Unbound SRB is removed by washing with 1% acetic acid. Plates are air-dried and bound stain is solubilized with Tris Buffer. Optical densities are read on an automated spectrophotometric plate reader at a single wavelength of 490 nm.
(§4) The values for mean ±SD of data from triplicate wells are calculated. GI50 (concentration that produces 50% growth inhibition) parameter was calculated (NCI algorithm) by automatic interpolation.

HT29 = test: Cytotoxic assay, sulforhodamine B (SRB), HT29; details: Homo sapiens, HT-29; HT29 cells, 48 hours exposure, SRB method
Excerpt: as §1, §2, §3, §4

MEL-28 = test: Cytotoxic assay, sulforhodamine B (SRB), MEL-28; details: Homo sapiens, SK-MEL-28; MEL-28 cells, 48 hours exposure, SRB method
Excerpt: as §1, §2, §3, §4

DU-14S = test: Cytotoxic assay, sulforhodamine B (SRB), DU-14S; details: Homo sapiens; DU-14S cells, 48 hours exposure, SRB method
Excerpt: as §1, §2, §3, §4

Row | SMILES | GI50 (A549) [nM] | GI50 (HT29) [nM] | GI50 (MEL-28) [nM] | GI50 (DU-14S) [nM]
1 | COc1c(C)cc2c(c1O)[C@@H]1[C@@H]3[C@@H]4SC[C@H](NC(=O)c5cc6ccccc6oc5=O)C(=O)OC[C@@H](c5c6c(c(C)c(OC(C)=O)c54)OCO6)N3[C@@H](C#N)[C@H](C2)N1C [Compound 15a] | 2.83 | 4.38 | 3.23 | 4.38
2 | COc1c(C)cc2c(c1O)[C@@H]1[C@@H]3[C@@H]4SC[C@H](NC(=O)c5cccnc5Cl)C(=O)OC[C@@H](c5c6c(c(C)c(OC(C)=O)c54)OCO6)N3[C@@H](C#N)[C@H](C2)N1C [Compound 15c] | 1.8 | 2.93 | 1.21 | 0.468
3 | COc1c(C)cc2c(c1O)[C@@H]1[C@@H]3[C@@H]4SC[C@H](NC(=O)c5cc(C)on5)C(=O)OC[C@@H](c5c6c(c(C)c(OC(C)=O)c54)OCO6)N3[C@@H](C#N)[C@H](C2)N1C [Compound 15e] | 5.77 | 5.36 | 2.58 | 3.84
4 | COc1c(C)cc2c(c1O)[C@@H]1[C@@H]3[C@@H]4SC[C@H](NC(=O)c5cc6ccccc6oc5=O)C(=O)OC[C@@H](c5c6c(c(C)c(OC(C)=O)c54)OCO6)N3[C@@H](O)[C@H](C2)N1C [Compound 16a] | 2.94 | 3.94 | 3.02 | 4.73
5 | COc1c(C)cc2c(c1O)[C@@H]1[C@@H]3[C@@H]4SC[C@H](NC(=O)[C@@H]5CCCN5C(=O)OC(C)(C)C)C(=O)OC[C@@H](c5c6c(c(C)c(OC(C)=O)c54)OCO6)N3[C@@H](O)[C@H](C2)N1C [Compound 16b] | 1.23 | 1.23 | 1.11 | 0.37
6 | COc1c(C)cc2c(c1O)[C@@H]1[C@@H]3[C@@H]4SC[C@H](NC(=O)[C@@H]5CCCN5)C(=O)OC[C@@H](c5c6c(c(C)c(OC(C)=O)c54)OCO6)N3[C@@H](O)[C@H](C2)N1C [Compound 16c] | 5.63 | 0.0422 | 0.281 | 1.13
7 | COc1c(C)cc2c(c1O)[C@@H]1[C@@H]3[C@@H]4SC[C@H](NC(=O)c5cccnc5Cl)C(=O)OC[C@@H](c5c6c(c(C)c(OC(C)=O)c54)OCO6)N3[C@@H](O)[C@H](C2)N1C [Compound 16d] | 1330 | 13300 | 2.5 | 2.16
8 | COc1c(C)cc2c(c1O)[C@@H]1[C@@H]3[C@@H]4SC[C@H](NC(=O)c5cnn(-c6ccccc6)c5C(F)(F)F)C(=O)OC[C@@H](c5c6c(c(C)c(OC(C)=O)c54)OCO6)N3[C@@H](O)[C@H](C2)N1C [Compound 16e] | 35.1 | 38.6 | 29.8 | 27.2
9 | COc1c(C)cc2c(c1O)[C@@H]1[C@@H]3[C@@H]4SC[C@H](NC(=O)c5cc(C)on5)C(=O)OC[C@@H](c5c6c(c(C)c(OC(C)=O)c54)OCO6)N3[C@@H](O)[C@H](C2)N1C [Compound 16f] | 3.47 | 4.3 | 5.13 | 3.4
